# “Also recorded” adds a separate entry of the source.
# Target: T1, γ-secretase active site (Homo sapiens, UniProt P49768)
# T1 construct: endogenous in cells; host or cells: HeLa membrane
# Assay: Photolabeling of the γ-secretase active site (PS1-NTF) in HeLa membrane with probes L646, GY4, JC8, L505
# Format: binding
# Conditions: L458 and Compound E at 2 μM, CS-1 up to 100 μM
# Experimental: FIG. 4. Kinetic analysis of allosteric GSIs and evaluation of their effect on the γ-secretase active site architecture. (a) Kinetic analysis of CS1 was performed using our modified version of a previously reported in vitro γ-secretase activity assay. The inhibition kinetics were analyzed by using a non-linear curve fit with the Michaelis-Menten equation. Upper right inset: we replotted slopes against the inhibitor concentrations after performing double reciprocal conversion. (b) Schematic representation of the allosteric binding of the di-coumarin compounds to γ-secretase. This binding ultimately causes an alteration at the active site of γ-secretase. Black rectangle represents the coumarin-dimer compound. (c) The binding of L458 to the active site of γ-secretase and its interaction at various subpockets within the enzyme. (d) Chemical structure of the four photoaffinity probes utilized in the characterization of CS-1 effect on active site architecture. Hydroxyethylamine and benzophenone moieties are marked by blue and red, respectively. (e) Evaluation of CS-1 effect on the photolabeling of four probes. […] (f) Evaluation of CS-2 effect on the active site photolabeling by L505 and GY4. (g) Effect of Compound E on active site photolabling. […] Blotting was performed for PS1-NTF. The photolabeling blots are representative and were performed in triplicate.
# We hypothesized that the allosteric binding of the di-coumarin compounds alters the conformation of the active site of γ-secretase and thereby preferentially affects the Aβ42 site cleavage (FIG. 4b). This raised the technical issue of how to probe the contours of the enzymatic active site. Although the structure of γ-secretase has been determined by cryoelectron microscopy (23), the resolution attained is not sufficient to investigate subtle changes within the active site. Consequently, we developed a series of active-site directed inhibitors that incorporate a photoreactive benzophenone entity into varied positions. Using these photoreactive probes, we assessed the effect of the di-coumarin inhibitor binding on the active site of γ-secretase. Since the efficiency of photoinsertion depends on the orientation of the probe and the proximity of residues within the active site, conformational change of the active site can alter the orientation of the probe and contact residues and lead to altered cross-linking efficiencies. Therefore, multiple photoactivatable, active-site directed GSIs will provide a practical approach to evaluate the changes within the active site following allosteric di-coumarin binding.
# L458 contains a hydroxyethylamine transition-state isostere that mimics the tetrahedral intermediate of aspartyl proteases and this moiety hydrogen bonds with the catalytic aspartate residues of γ-secretase (20). According to the nomenclature of Schechter and Berger (24), L458 contains the P2, P1, P1′, P2′ and P3′ residues that putatively bind to the S2, S1, S1′, S2′ and S3′ subsites, respectively, within the active site of γ-secretase (FIG. 4c). We have developed a series of biotinylated, photoactivatable inhibitors based on the core structure of L458 that allow us to probe the sub-pockets of the γ-secretase active site (3, 25-26). These inhibitors all have an individual benzophenone group incorporated into L458 at either the P2, P1, P1′, or P3′ position and are referred to as L646, GY4, JC8 and L505 (FIG. 4d). Each of these inhibitors interacts and labels the S2, S1, S1′, and S3′ subsites, respectively, within the γ-secretase complex (FIG. 4c-d).
# HeLa membrane was incubated with CHAPSO detergent and photoaffinity probe in the presence or absence of excess L458 or CS-1. Labeled presenilin was isolated using streptavidin beads, separated by SDS-PAGE and subsequently western blotted using anti-PS1-NTF antibodies. Again, presenilin is believed to contain the active site of γ-secretase, therefore we examined PS1 photolabeling. […]
smiles,measurement,setting,value
C[C@H](NC(=O)Cc1cc(F)cc(F)c1)C(=O)N[C@H]1N=C(c2ccccc2)c2ccccc2N(C)C1=O [Compound E],effect on JC-8 photolabeling of PS1-NTF (S1′ subsite),,completely suppressed; also recorded: nonselectively blocked
same,effect on L646 photolabeling of PS1-NTF (S2 subsite),,completely suppressed; also recorded: nonselectively blocked
same,effect on GY-4 photolabeling of PS1-NTF (S1 subsite),CS-2 at 100 μM,completely suppressed; also recorded: nonselectively blocked
same,effect on L505 photolabeling of PS1-NTF (S3′ subsite),CS-2 at 100 μM,completely suppressed; also recorded: nonselectively blocked
